Data on 14 compounds can be found in patent US9751869B2, “LXR modulators” (BRISTOL-MYERS SQUIBB COMPANY, priority 2013, dated 2017).

In the test the target is T1, LXRβ (Homo sapiens, UniProt P55055).
T1 construct: Co-transfection expression plasmids, comprising full-length LXRα (pCMX-h LXRα or LXRβ (pCMX-hLXRβ)); expressed in transfected cells; host or cells: CV-1 African green monkey kidney cells, transient transfection with pCMX-hLXRβ
T1 sequence (P55055 1-460): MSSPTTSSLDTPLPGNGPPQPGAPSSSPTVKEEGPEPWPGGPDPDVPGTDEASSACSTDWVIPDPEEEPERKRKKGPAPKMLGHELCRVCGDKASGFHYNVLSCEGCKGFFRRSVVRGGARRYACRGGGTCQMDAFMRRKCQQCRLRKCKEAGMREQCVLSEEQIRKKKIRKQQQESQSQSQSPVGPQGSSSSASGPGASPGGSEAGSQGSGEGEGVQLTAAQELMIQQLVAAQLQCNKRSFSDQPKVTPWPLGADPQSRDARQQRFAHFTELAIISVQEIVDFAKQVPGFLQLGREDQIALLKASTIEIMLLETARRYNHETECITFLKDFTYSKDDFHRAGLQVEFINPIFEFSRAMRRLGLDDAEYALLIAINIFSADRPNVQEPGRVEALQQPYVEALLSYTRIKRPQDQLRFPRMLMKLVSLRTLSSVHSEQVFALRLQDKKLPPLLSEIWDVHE
T1 sequence (P19793 1-462 partner): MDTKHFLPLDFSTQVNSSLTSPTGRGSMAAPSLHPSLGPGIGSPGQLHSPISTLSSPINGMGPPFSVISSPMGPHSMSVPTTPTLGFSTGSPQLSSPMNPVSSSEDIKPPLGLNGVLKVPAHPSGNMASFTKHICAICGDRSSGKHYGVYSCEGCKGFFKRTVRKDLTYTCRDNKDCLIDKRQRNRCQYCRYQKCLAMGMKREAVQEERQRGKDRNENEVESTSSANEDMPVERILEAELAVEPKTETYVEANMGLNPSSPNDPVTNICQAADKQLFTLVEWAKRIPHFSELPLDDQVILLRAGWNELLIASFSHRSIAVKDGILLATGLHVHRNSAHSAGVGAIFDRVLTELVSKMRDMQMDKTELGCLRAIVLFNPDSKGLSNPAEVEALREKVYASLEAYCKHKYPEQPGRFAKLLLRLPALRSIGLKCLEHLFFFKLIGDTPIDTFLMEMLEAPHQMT
Nature of the test: LXR/LXRE co-transfection assay (luciferase reporter) in CV-1 cells, LXRβ. In kind it is cell-based. Conditions: for EC50: CV-1 cells transfected with pCMX-hLXRβ and LXREx1-Tk-Luciferase, 20 hours incubation, read-out: LXRbeta agonism EC50; for Emax: CV-1 cells, relative to maximum response of high control N-(3-((4-fluorophenyl)-(naphthalene-2-sulfonyl)amino)propyl)-2,2-dimethylpropionamide, read-out: LXRbeta % EFFICACY
In outline:
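CV-1 cells transiently co-transfected with full-length human LXRβ, LXRE-Tk-luciferase reporter and β-galactosidase control, then exposed to compound (≤0.5% DMSO) for 20 h at 37 °C before luminescence read. EC50 from 10-point, half-log dose curves; efficacy relative to the sulfonamide high control, means of 2–3 experiments.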

As to `Cc1nc(-c2ccc3c(c2)OC(F)(F)O3)c(-c2cc(-c3cc(F)c(CO)c(S(C)(=O)=O)c3)ccc2-c2cc(CS(=O)(=O)N(C)C)nn2C)o1` [Example 69, 1-(5-(3-(4-(2,2-difluorobenzo[d][1,3]dioxol-5-yl)-2-methyloxazol-5-yl)-3′-fluoro-4′-(hydroxymethyl)-5′-(methylsulfonyl)-[1,1′-biphenyl]-4-yl)-1-methyl-1H-pyrazol-3-yl)-N,N-dimethylmethanesulfonamide], the EC50 (as a rule, the concentration that produces a half-maximal response) amounted to 160 nM and the Emax was 24%.
For `Cc1nc(-c2cc(-c3cccc(S(C)(=O)=O)c3)ccc2-n2ccc(C(F)(F)F)n2)c(-c2cc(F)c(OC(F)F)c(F)c2)o1` [Example 409, 5-(4-(difluoromethoxy)-3,5-difluorophenyl)-2-methyl-4-(3′-(methylsulfonyl)-4-(3-(trifluoromethyl)-1H-pyrazol-1-yl)biphenyl-3-yl)oxazole], in that order: 45 nM and 69%.
Regarding `Cc1nc(-c2ccc3c(c2)OC(F)(F)O3)c(-c2cc(-c3cc(F)c(CO)c(S(C)(=O)=O)c3)ccc2-c2cc(C(F)(F)C(=O)NCCO)nn2C)o1` [Example 86, 2-(5-(3-(4-(2,2-difluorobenzo[d][1,3]dioxol-5-yl)-2-methyloxazol-5-yl)-3′-fluoro-4′-(hydroxymethyl)-5′-(methylsulfonyl)biphenyl-4-yl)-1-methyl-1H-pyrazol-3-yl)-2,2-difluoro-N-(2-hydroxyethyl)acetamide], the EC50 was determined as 715 nM and the Emax was found to be 37%.
For `Cn1nc(C(=O)NC(C)(C)C)cc1-c1ccc(-c2cccc(S(C)(=O)=O)c2)cc1-n1nncc1-c1ccc(OC(F)(F)F)cc1` [Example 40, N-(1,1-dimethylethyl)-1-methyl-5-[3′-(methylsulfonyl)-3-(5-{4-[(trifluoromethyl)oxy]phenyl}-1H-1,2,3-triazol-1-yl)biphenyl-4-yl]-1H-pyrazole-3-carboxamide], in that order: 695 nM and 76%.
With `Cn1nc(C(F)(F)C(N)=O)cc1-c1ccc(-c2cc(F)c(CO)c(S(C)(=O)=O)c2)cc1-n1nncc1-c1ccc(OC(F)(F)F)cc1` [Example 8, 2,2-difluoro-2-(5-(3′-fluoro-4′-(hydroxymethyl)-5′-(methylsulfonyl)-3-(5-(4-(trifluoromethoxy)phenyl)-1H-1,2,3-triazol-1-yl)biphenyl-4-yl)-1-methyl-1H-pyrazol-3-yl)acetamide], the EC50 is 2320 nM and the Emax came out at 79%.
Turning to `Cn1nc(C(F)(F)C(C)(C)O)cc1-c1ccc(-c2cc(F)c(CO)c(S(C)(=O)=O)c2)cc1-n1nncc1-c1ccc2c(c1)OC(F)(F)O2` [Example 34, 1-(5-(3-(5-(2,2-difluorobenzo[d][1,3]dioxol-5-yl)-1H-1,2,3-triazol-1-yl)-3′-fluoro-4′-(hydroxymethyl)-5′-(methylsulfonyl)-[1,1′-biphenyl]-4-yl)-1-methyl-1H-pyrazol-3-yl)-1,1-difluoro-2-methylpropan-2-ol], the concentration for a half-maximal effect (EC50) was determined as 878 nM and the Emax stood at 63%.
Consider `Cc1nc(-c2ccc3c(c2)OC(F)(F)O3)c(-c2cc(-c3cc(F)c(CO)c(S(C)(=O)=O)c3)ccc2-c2cc(C(C)(C)O)nn2C)o1` [Example 92, 2-(5-(3-(4-(2,2-difluorobenzo[d][1,3]dioxol-5-yl)-2-methyloxazol-5-yl)-3′-fluoro-4′-(hydroxymethyl)-5′-(methylsulfonyl)biphenyl-4-yl)-1-methyl-1H-pyrazol-3-yl)propan-2-ol], for which the EC50 came out at 105 nM and the Emax turned out to be 38%.
In the case of `Cc1cc(C(C)(F)F)nn1-c1ccc(-c2cc(F)c(CO)c(S(C)(=O)=O)c2)cc1-n1nncc1-c1ccc(OC(F)(F)F)cc1` [Example 305, {4′-[3-(1,1-difluoroethyl)-5-methyl-1H-pyrazol-1-yl]-3-fluoro-5-(methylsulfonyl)-3′-(5-{4-[(trifluoromethyl)oxy]phenyl}-1H-1,2,3-triazol-1-yl)biphenyl-4-yl}methanol], the EC50 was found to be 2040 nM and the Emax worked out at 45%.
`CC(O)C(F)(F)c1cc(-c2ccc(-c3cc(F)c(CO)c(S(C)(=O)=O)c3)cc2-n2nncc2-c2ccc(OC(F)(F)F)cc2)n(C)n1` (stereo not shown) [Example 6, 1,1-difluoro-1-(5-(3′-fluoro-4′-(hydroxymethyl)-5′-(methylsulfonyl)-3-(5-(4-(trifluoromethoxy)phenyl)-1H-1,2,3-triazol-1-yl)biphenyl-4-yl)-1-methyl-1H-pyrazol-3-yl)propan-2-ol]: the concentration giving a half-maximal response (EC50) worked out at 252 nM and the Emax was found to be 84%.
Regarding `Cn1nc(C(F)(F)C(C)(C)O)cc1-c1ccc(-c2cccc(S(C)(=O)=O)c2)cc1-n1nncc1-c1ccc2c(c1)OC(F)(F)O2` [Example 33, 1-(5-(3-(5-(2,2-difluorobenzo[d][1,3]dioxol-5-yl)-1H-1,2,3-triazol-1-yl)-3′-(methylsulfonyl)-[1,1′-biphenyl]-4-yl)-1-methyl-1H-pyrazol-3-yl)-1,1-difluoro-2-methylpropan-2-ol], the EC50 is 1430 nM and the Emax is 66%.
As to `Cc1nc(-c2ccc(Cl)cc2Cl)c(-c2cc(-c3cc(F)c(CO)c(S(C)(=O)=O)c3)ccc2-n2cc(Cl)c(C(F)(F)F)n2)o1` [Example 424, (4′-(4-chloro-3-(trifluoromethyl)-1H-pyrazol-1-yl)-3′-(4-(2,4-dichlorophenyl)-2-methyloxazol-5-yl)-3-fluoro-5-(methylsulfonyl)-[1,1′-biphenyl]-4-yl)methanol], the 50% effective concentration (EC50) stood at 13 nM and the Emax is 60%.
With `CNS(=O)(=O)c1cccc(-c2ccc(-c3cc(C(F)(F)F)nn3C)c(-c3oc(C)nc3-c3ccc(OC(F)(F)F)cc3)c2)c1` [Example 127, N-methyl-4′-(1-methyl-3-(trifluoromethyl)-1H-pyrazol-5-yl)-3′-(2-methyl-4-(4-(trifluoromethoxy)phenyl)oxazol-5-yl)-[1,1′-biphenyl]-3-sulfonamide], the EC50 worked out at 59 nM and the Emax came out at 99%.
On to `CNC(=O)C(F)(F)c1cc(-c2ccc(-c3cc(F)c(CO)c(S(C)(=O)=O)c3)cc2-c2nc(C)oc2-c2ccc3c(c2)OC(F)(F)O3)n(C)n1` [Example 91, 2-(5-(3-(5-(2,2-difluorobenzo[d][1,3]dioxol-5-yl)-2-methyloxazol-4-yl)-3′-fluoro-4′-(hydroxymethyl)-5′-(methylsulfonyl)biphenyl-4-yl)-1-methyl-1H-pyrazol-3-yl)-2,2-difluoro-N-methylacetamide], for which the EC50 is 135 nM and the Emax is 45%.
As for `Cc1nc(-c2ccc3c(c2)OC(F)(F)O3)c(-c2cc(-c3cc(F)c(CO)c(S(C)(=O)=O)c3)ccc2-c2cc(C#N)nn2C)o1` [Example 122, 5-(3-(4-(2,2-difluorobenzo[d][1,3]dioxol-5-yl)-2-methyloxazol-5-yl)-3′-fluoro-4′-(hydroxymethyl)-5′-(methylsulfonyl)-[1,1′-biphenyl]-4-yl)-1-methyl-1H-pyrazole-3-carbonitrile], the half-maximal effective concentration (EC50) was found to be 63 nM and the Emax amounted to 22%.
